How the values were obtained:
Details in all cases: exposure time 48 h
[1] = tested on: Caenorhabditis elegans N2; experiment: mean nematode size ln(EXT) after 48 h, plate-adjusted (DMSO control set to 6) (ln(EXT), control-adjusted); higher = larger nematodes / less growth inhibition
Outline: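 C. elegans N2 larvae, synchronised at L1, grew for 48 h at 20°C in K-medium with killed OP50, 1% DMSO and 0.5–200 µM chemical. Mean size per well was derived from natural-logged Biosort extinction after a growth model removed debris. Adjustment across plates involved subtracting the vehicle control mean and adding 6.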

[2] = tested on: Caenorhabditis elegans N2; experiment: lowest effective concentration for larval growth inhibition (size below effect threshold); higher = less potent
Outline: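 In 96-well plates, 50 C. elegans N2 L1 larvae per well were cultured at 20°C for 48 h in K-medium with killed bacteria and 1% DMSO, plus the chemical at 0.5, 1, 5, 10, 50, 100 or 200 µM. Size was measured as per-worm extinction on a Biosort and log-transformed into well means. Taking the first dose where the plate-adjusted mean size sits under 5.665 and stays there at higher doses gives the lowest effective concentration.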

[3] = tested on: Caenorhabditis elegans N2; experiment: AC50 for larval growth inhibition (Hill fit); higher = less potent
Outline: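 After 48 h at 20°C in K-medium with killed OP50, 1% DMSO and 0.5–200 µM chemical, synchronised C. elegans N2 L1 larvae (50 per well, 96-well plates) were sized individually as extinction on a COPAS Biosort. These values were log-transformed and averaged per well, and wells with fewer than 10 worms were excluded. The AC50 was derived from a constrained Hill fit by weighted genetic-algorithm regression, and out-of-range values are censored.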

| SMILES | mean nematode size ln(EXT) (ln) ([1]; 0.5 µM) | mean nematode size ln(EXT) (ln) ([1]; 1 µM) | mean nematode size ln(EXT) (ln) ([1]; 5 µM) | mean nematode size ln(EXT) (ln) ([1]; 10 µM) | mean nematode size ln(EXT) (ln) ([1]; 50 µM) | mean nematode size ln(EXT) (ln) ([1]; 100 µM) | mean nematode size ln(EXT) (ln) ([1]; 200 µM) | lowest effective concentration [2] [µM] | AC50 for larval growth inhibition [3] [µM] |
| --- | --- | --- | --- | --- | --- | --- | --- | --- | --- |
| Oc1cc(Cl)ccc1Oc1ccc(Cl)cc1Cl [Triclosan] | 5.89 | 5.86 | 5.85 | 5.64 | 4.79 | 4.27 | 4 | 10 | 49.9 |
| CCCCCCCCCCCCCN1CC(C)OC(C)C1 (configuration not stated) [Tridemorph] | 5.89 | 5.94 | 5.84 | 5.85 | 5.73 | 5.49 | 4.26 | 100 | 174 |
| CCCCCCCCCCCCc1cccc(S(=O)(=O)O)c1 [Triethanolamine dodecylbenzene sulfonate] | 5.43 | 5.59 | 5.54 | 5.69 | 5.03 | 4.02 | 4.04 | 50 | 50.5 |
| COCCOCCOCCOC [Triethylene glycol dimethyl ether] | 5.75 | 6.01 | 5.91 | 5.91 | 5.72 | 5.81 | 5.64 | 200 | > 200 |
| CO/N=C(/C(=O)OC)c1ccccc1CO/N=C(\C)c1cccc(C(F)(F)F)c1 [Trifloxystrobin] | 5.88 | 5.87 | 5.71 | 5.82 | 5.92 | 4.16 | 3.43 | 100 | 90.8 |
| COc1cc(OC)nc(NC(=O)NS(=O)(=O)c2ncccc2OCC(F)(F)F)n1 [Trifloxysulfuron-sodium] | 5.81 | 5.77 | 6.02 | 5.88 | 5.9 | 5.97 | 5.51 | 200 | 196 |
| CCCOC/C(=N\c1ccc(Cl)cc1C(F)(F)F)n1ccnc1 [Triflumizole] | 5.97 | 6.09 | 4.54 | 6.04 | 5.95 | 4.88 | 3.47 | 100 | 21.3 |
| CCCN(CCC)c1c([N+](=O)[O-])cc(C(F)(F)F)cc1[N+](=O)[O-] [Trifluralin] | 5.85 | 6.06 | 6.05 | 6 | 5.03 | 6.06 | 3.63 | 200 | 53 |
| O=c1n(CC2CO2)c(=O)n(CC2CO2)c(=O)n1CC1CO1 (configuration not stated) [Triglycidyl isocyanurate] | 5.88 | 5.83 | 5.84 | 5.89 | 5.86 | 5.42 | 5.65 | 100 | > 200 |
| O=P(Oc1ccccc1)(Oc1ccccc1)Oc1ccccc1 [Triphenyl phosphate] | 5.84 | 5.63 | 5.25 | 4.99 | 4.17 | 3.78 | 3.66 | 1 | 20.5 |
| O=P(OC(CCl)CCl)(OC(CCl)CCl)OC(CCl)CCl [Tris(1,3-dichloro-2-propyl) phosphate (TDCPP)] | 5.85 | 5.86 | 5.83 | 5.77 | 5.39 | 4.98 | 3.63 | 50 | 117 |
| CCCCC(CC)COC(=O)c1ccc(C(=O)OCC(CC)CCCC)c(C(=O)OCC(CC)CCCC)c1 (configuration not stated) [Tris(2-ethylhexyl)trimellitate] | 5.91 | 5.93 | 5.94 | 5.81 | 5.93 | 5.87 | 5.53 | 200 | > 200 |
| CC1(C)CC/C(=C\c2ccc(Cl)cc2)C1(O)Cn1cncn1 (configuration not stated) [Triticonazole] | 5.82 | 5.72 | 6.07 | 5.84 | 5.91 | 5.68 | 5.25 | 200 | 120 |
| Cc1c(C)c2c(c(C)c1O)CCC(C)(COc1ccc(CC3SC(=O)NC3=O)cc1)O2 (configuration not stated) [Troglitazone] | 5.7 | 5.77 | 5.66 | 5.69 | 4.39 | 4.11 | 3.59 | 50 | 47.7 |
| CCCCCCCCCCC [Undecane] | 5.95 | 5.92 | 5.86 | 5.83 | 5.86 | 5.9 | 5.57 | 200 | > 200 |
| C=CC1(C)OC(=O)N(c2cc(Cl)cc(Cl)c2)C1=O (configuration not stated) [Vinclozolin] | 5.76 | 5.01 | 3.56 | 3.46 | 3.32 | 3.11 | 3.61 | 1 | 1.18 |
| CC(=O)CC(c1ccccc1)c1c(O)c2ccccc2oc1=O (configuration not stated) [Warfarin] | 5.8 | 5.94 | 5.97 | 5.89 | 5.91 | 5.81 | 5.59 | 200 | > 200 |
| c1ccc(C(O[C@@H]2CCCN(CCc3ccc4c(c3)OCO4)C2)c2ccccc2)cc1 [Zamifenacin] | 5.83 | 5.81 | 5.73 | 5.55 | 4.99 | 4.17 | 3.31 | 10 | 70.4 |
